# Test results reported in patent publication US8785445B2 (Array BioPharma Inc., priority 2008, dated 2014).
# Target: T1, human DP2 (Homo sapiens, UniProt Q9Y5Y4)
# T1 construct: expressed in transfected cells; membranes prepared
# T1 sequence (Q9Y5Y4 1-395): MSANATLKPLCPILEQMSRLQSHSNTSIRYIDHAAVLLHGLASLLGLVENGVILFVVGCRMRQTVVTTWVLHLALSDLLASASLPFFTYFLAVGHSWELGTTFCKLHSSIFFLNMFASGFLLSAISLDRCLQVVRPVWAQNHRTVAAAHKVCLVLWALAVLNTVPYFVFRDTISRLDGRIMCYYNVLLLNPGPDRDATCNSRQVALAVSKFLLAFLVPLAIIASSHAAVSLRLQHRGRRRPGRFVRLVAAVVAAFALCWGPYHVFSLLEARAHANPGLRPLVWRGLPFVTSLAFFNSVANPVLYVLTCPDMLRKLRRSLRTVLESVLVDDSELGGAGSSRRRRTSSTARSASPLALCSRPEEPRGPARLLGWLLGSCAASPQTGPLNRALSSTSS
# Assay: DP-2 binding inhibition assay (3H-PGD2, membranes of DP2-expressing K562 cells)
# Settings: 0.1% BSA, read-out: EC50 (nM) 0.1% BSA
# How it was run: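 Membranes from K562 clones stably expressing human DP2 were incubated 60 min at room temperature with 3H-PGD2 and compound, with 0.1% BSA, 1% HSA or 4% HSA, then filtered and counted.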
row,EC50,SMILES
1,7.6 nM,"Cc1cc2nc(NC(=O)c3ccc(Oc4cc5c(cc4C#N)C(C(=O)O)CCO5)cc3)sc2cc1C (stereo not shown) [Example 200, 6-cyano-7-(4-(5,6-dimethylbenzo[d]thiazol-2-ylcarbamoyl)phenoxy) chroman-4-carboxylic acid]"
2,301 nM,"N#Cc1cc2c(cc1Oc1ccc(C(=O)Nc3ccc4ncoc4c3)cc1)OCCC2C(=O)O (stereo not shown) [Example 188, 7-(4-(benzo[d]oxazol-6-ylcarbamoyl)phenoxy)-6-cyanochroman-4-carboxylic acid]"

# Same assay, conditions: 4% HSA, read-out: EC50 (nM) 4% HSA
row,EC50,SMILES
1,36.1 nM,"N#Cc1cc2c(cc1Oc1ccc(C(=O)Nc3cccc(-c4ccc(C(F)(F)F)cc4)n3)cc1)OCCC2C(=O)O (stereo not shown) [Example 42, 6-Cyano-7-(4-(6-(4-(trifluoromethyl)phenyl)pyridin-2-ylcarbamoyl)-phenoxy)chroman-4-carboxylic acid]"
2,4000 nM,"O=C(Nc1ccc2cc(Cl)ccc2n1)c1ccc(Oc2cc3c(cc2Cl)[C@@H](C(=O)O)CCO3)cc1 (single isomer, unassigned; enantiomer 2) [Example 37, 6-Chloro-7-(4-(6-chloroquinolin-2-ylcarbamoyl)phenoxy)chroman-4-carboxylic acid, Enantiomer 2]"
3,185 nM,"O=C(Nc1ccc2cc(F)ccc2n1)c1ccc(Oc2cc3c(cc2Cl)C(C(=O)O)CCO3)cc1 (stereo not shown) [Example 18, 6-Chloro-7-(4-(6-fluoroquinolin-2-ylcarbamoyl)phenoxy)chroman-4-carboxylic acid]"
4,45.3 nM,"O=C(Nc1nc(-c2ccc(Cl)cc2)cs1)c1ccc(Oc2cc3c(cc2Cl)C(C(=O)O)CCO3)cc1 (stereo not shown) [Example 152, 6-chloro-7-(4-(4-(4-chlorophenyl)thiazol-2-ylcarbamoyl)phenoxy)chroman-4-carboxylic acid]"
5,22 nM,"O=C(Nc1cccc(-c2ccc(Cl)cc2)n1)c1ccc(Oc2cc3c(cc2Cl)C(C(=O)O)CCO3)cc1 (single isomer, unassigned; enantiomer 2) [Example 182, Enantiomer 2 of 6-Chloro-7-(4-(6-(4-chlorophenyl)pyridin-2-ylcarbamoyl)phenoxy)chroman-4-carboxylic acid]"
6,55.5 nM,"Cc1ccc(-c2cccc(NC(=O)c3ccc(Oc4cc5c(cc4Cl)C(C(=O)O)CCO5)cc3)n2)cc1F (stereo not shown) [Example 88, 6-Chloro-7-(4-(6-(3-fluoro-4-methylphenyl)pyridin-2-ylcarbamoyl)phenoxy)chroman-4-carboxylic acid]"
7,274 nM,"O=C(Nc1cnc(-c2cccc(Cl)c2)cn1)c1ccc(Oc2cc3c(cc2Cl)C(C(=O)O)CCO3)cc1 (stereo not shown) [Example 96, 6-Chloro-7-(4-(5-(3-chlorophenyl)pyrazin-2-ylcarbamoyl)phenoxy)chroman-4-carboxylic acid]"
8,21.7 nM,"O=C(Nc1cccc(-c2ccc(Cl)cc2)n1)c1ccc(Oc2cc3c(cc2Cl)[C@H](C(=O)O)CCO3)cc1 (single isomer, unassigned; enantiomer 2) [Example 142, 6-Chloro-7-(4-(6-(4-chlorophenyl)pyridin-2-ylcarbamoyl)phenoxy)chroman-4-carboxylic acid, Enantiomer 2]"
9,49.5 nM,"O=C(Nc1cccc(-c2ccc(Cl)c(F)c2)n1)c1ccc(Oc2cc3c(cc2Cl)C(C(=O)O)CCO3)cc1 (stereo not shown) [Example 86, 6-Chloro-7-(4-(6-(4-chloro-3-fluorophenyl)pyridin-2-ylcarbamoyl)phenoxy)chroman-4-carboxylic acid]"
10,45.1 nM,"Cc1ccc(-c2cccc(NC(=O)c3ccc(Oc4cc5c(cc4C#N)C(C(=O)O)CCO5)cc3)n2)cc1C (stereo not shown) [Example 13, 6-Cyano-7-(4-(6-(3,4-dimethylphenyl)pyridin-2-ylcarbamoyl)phenoxy)chroman-4-carboxylic acid]"
11,120 nM,"O=C(Nc1cccc(-c2ccc(F)cc2F)n1)c1ccc(Oc2cc3c(cc2Cl)C(C(=O)O)CCO3)cc1 (stereo not shown) [Example 82, 6-Chloro-7-(4-(6-(2,4-difluorophenyl)pyridin-2-ylcarbamoyl)phenoxy)chroman-4-carboxylic acid]"
12,80.5 nM,"O=C(Nc1cncc(-c2ccc(C(F)(F)F)cc2)n1)c1ccc(Oc2cc3c(cc2Cl)C(C(=O)O)CCO3)cc1 (stereo not shown) [Example 93, 6-Chloro-7-(4-(6-(4-(trifluoromethyl)phenyl)pyrazin-2-ylcarbamoyl)phenoxy)chroman-4-carboxylic acid]"
13,96.2 nM,"O=C(Nc1ccc(-c2ccc(Cl)c(Cl)c2)nn1)c1ccc(Oc2cc3c(cc2Cl)C(C(=O)O)CCO3)cc1 (stereo not shown) [Example 65, Sodium 6-chloro-7-(4-(6-(3,4-dichlorophenyl)pyridazin-3-ylcarbamoyl)phenoxy)chroman-4-carboxylate]"
14,764 nM,"Cc1cccc2ccc(NC(=O)c3ccc(Oc4cc5c(cc4Cl)C(C(=O)O)CCO5)cc3)nc12 (stereo not shown) [Example 24, 6-Chloro-7-(4-(8-methylquinolin-2-ylcarbamoyl)phenoxy)chroman-4-carboxylic acid]"

# Continued, compound first:
row,SMILES,EC50
1,"CCc1oc(NC(=O)c2ccc(Oc3cc4c(cc3Cl)C(C(=O)O)CCO4)cc2)nc1-c1ccccc1 (stereo not shown) [Example 159, 6-chloro-7-(4-(5-ethyl-4-phenyloxazol-2-ylcarbamoyl)phenoxy)chroman-4-carboxylic acid]",437 nM
2,"CC(C)(C)c1csc(NC(=O)c2ccc(Oc3cc4c(cc3Cl)C(C(=O)O)CCO4)cc2)n1 (stereo not shown) [Example 150, 7-(4-(4-tert-butylthiazol-2-ylcarbamoyl)phenoxy)-6-chlorochroman-4-carboxylic acid]",32.7 nM
3,"O=C(Nc1ccn(-c2cccc(Cl)c2)n1)c1ccc(Oc2cc3c(cc2Cl)C(C(=O)O)CCO3)cc1 (stereo not shown) [Example 172, 6-chloro-7-(4-(1-(3-chlorophenyl)-1H-pyrazol-3-ylcarbamoyl)phenoxy)chroman-4-carboxylic acid]",55 nM
4,"O=C(NCCc1cccn1-c1ccc(C(F)(F)F)cc1)c1ccc(Oc2cc3c(cc2Cl)C(C(=O)O)CCO3)cc1 (stereo not shown) [Example 212, 6-chloro-7-(4-(2-(1-(4-(trifluoromethyl)phenyl)-1H-pyrrol-2-yl)ethylcarbamoyl)phenoxy) chroman-4-carboxylic acid]",3010 nM
5,"O=C(Nc1ccn(-c2ccc(F)c(F)c2)n1)c1ccc(Oc2cc3c(cc2Cl)C(C(=O)O)CCO3)cc1 (stereo not shown) [Example 166, 6-chloro-7-(4-(1-(3,4-difluorophenyl)-1H-pyrazol-3-ylcarbamoyl)phenoxy)chroman-4-carboxylic acid]",85.1 nM
6,"O=C(NCCc1ccc(C(F)(F)F)nc1C1CC1)c1ccc(Oc2cc3c(cc2Cl)C(C(=O)O)CCO3)cc1 (stereo not shown) [Example 186, Sodium 6-Chloro-7-(4-(2-(2-cyclopropyl-6-(trifluoromethyl)pyridin-3-yl)ethylcarbamoyl)phenoxy)chroman-4-carboxylate]",32.6 nM
7,"COc1ccc(-c2ccc(NC(=O)c3ccc(Oc4cc5c(cc4Cl)C(C(=O)O)CCO5)cc3)nc2)cn1 (stereo not shown) [Example 73, Sodium 6-chloro-7-(4-(6′-methoxy-3,3′-bipyridin-6-ylcarbamoyl)phenoxy)chroman-4-carboxylate]",959 nM
8,"COc1ccc(-c2ccc(NC(=O)c3ccc(Oc4cc5c(cc4Cl)C(C(=O)O)CCO5)cc3)nn2)c(OC)n1 (stereo not shown) [Example 69, Sodium 6-chloro-7-(4-(6-(2,6-dimethoxypyridin-3-yl)pyridazin-3-ylcarbamoyl)phenoxy)chroman-4-carboxylate]",1780 nM

# Same assay, conditions: EC50 (nM) 4% HSA, 4% HSA
row,SMILES,EC50
1,"COc1ccc(CCNC(=O)c2ccc(Oc3cc4c(cc3Cl)C(C(=O)O)CCO4)cc2)c(OC)n1 (stereo not shown) [Example 140, Sodium 6-chloro-7-(4-(2-(2,6-dimethoxypyridin-3-yl)ethylcarbamoyl)phenoxy)chroman-4-carboxylate]",107 nM
